In PubChem BioAssay AID588657 (The Scripps Research Institute Molecular Screening Center, 2011):
Activity calls are given as the source filed them.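 Rule for the calls: active = EGR1 protein level shifted at least 30% up or down versus solvent-only cells; inactive = shift under 30% either way.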

The compounds below were run against Early growth response protein 1 (Homo sapiens) (UniProt P18146) (assay: EGR1 protein level change in HT29 cells, late-stage follow-up, counter-screen for KLF5 inhibitor project, cell-based, HT29 colorectal carcinoma, chemiluminescent western blot (AID 588657)). Details: 24 h, at 10 µM, active compounds read high.
Sequence of Early growth response protein 1 (Homo sapiens) (P18146 whole entry, looked up): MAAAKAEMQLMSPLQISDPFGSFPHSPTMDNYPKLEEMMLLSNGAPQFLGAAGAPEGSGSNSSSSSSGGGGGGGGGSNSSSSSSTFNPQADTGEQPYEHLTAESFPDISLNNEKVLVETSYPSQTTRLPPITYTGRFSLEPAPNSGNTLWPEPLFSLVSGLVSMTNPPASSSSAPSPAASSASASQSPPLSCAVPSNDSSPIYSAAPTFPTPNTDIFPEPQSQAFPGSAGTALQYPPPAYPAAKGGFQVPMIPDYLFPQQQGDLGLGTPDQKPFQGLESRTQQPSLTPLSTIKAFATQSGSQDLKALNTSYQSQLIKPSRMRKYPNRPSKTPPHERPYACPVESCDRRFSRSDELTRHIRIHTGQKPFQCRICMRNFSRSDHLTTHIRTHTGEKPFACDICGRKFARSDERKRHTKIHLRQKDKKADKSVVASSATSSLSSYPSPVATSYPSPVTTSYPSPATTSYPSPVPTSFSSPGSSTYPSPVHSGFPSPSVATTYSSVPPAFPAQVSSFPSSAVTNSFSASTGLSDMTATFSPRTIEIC

Row | inhibition | SMILES
1 | 29.7% | CN(C(=O)COC(=O)/C=C/c1cccc([N+](=O)[O-])c1)C1CCS(=O)(=O)C1 (stereo not drawn)
2 | 9.34% (inactive) | CN(C(=O)CNC(=O)/C=C/c1cccc(Cl)c1)C1CCS(=O)(=O)C1 (stereo not drawn)
3 | 64.5% | CN(C(=O)CNC(=O)/C=C/c1cccc(Cl)c1)C1CCS(=O)(=O)CC1
